Experimental data: US12703712B2, “Indenonaphthopyrans having trialkylsilyl and ethylenically unsaturated groups” (Transitions Optical, Ltd., priority 2021, dated 2026)

assay: Solubility evaluation in polymerizable polysiloxane-containing formulation; assay type: physicochemical; conditions: 0.06 g photochromic compound in 1.50 g polymerizable polysiloxane-containing formulation of Table 1; stirred 24 hours at room temperature; visual observation
Description: A polymerizable polysiloxane-containing formulation was prepared by mixing together the ingredients and in the amounts as tabulated in the following Table 1.
The photochromic compounds of Comparative Examples CE-1 and CE-2, and Examples 4 and 5, prepared as described in Part-1, were each added to a polymerizable polysiloxane-containing formulation according to Table 1, to form Polymerizable Photochromic Compositions A, B, C, and D, as summarized in the following Table 2. The Polymerizable Photochromic Compositions were each stirred for 24 hours at room temperature after which the solubility of the photochromic compounds was determined by visual observation.

Compound	Observed Solubility
C=C(C)C(=O)OCCOCCOCCOc1ccc(C2(c3ccccc3)C=Cc3c4c(c5cc(N6CCCCC6)c(OC)cc5c3O2)-c2ccc(-c3ccccc3)cc2C4(CCC)CCC)cc1 (stereo not shown) [CE-1]	poor
C=C(C)C(=O)OCCOC(=O)CCC(=O)N1CCN(c2ccc(C3(c4ccccc4)C=Cc4c5c(c6cc(N7CCCCC7)c(OC)cc6c4O3)-c3ccccc3C5(C)C)cc2)CC1 (stereo not shown) [CE-2]	poor
C=C(C)C(=O)OCCOCCOCCOc1ccc(C2(c3ccccc3)C=Cc3c4c(c5cc(N6CCCCC6)c(OC)cc5c3O2)-c2ccc(-c3ccc([Si](C)(C)C)cc3)cc2C4(CCC)CCC)cc1 (stereo not shown) [Example 4, 6-methoxy-7-(piperidin-1-yl)-11-(4-trimethylsilylphenyl)-13,13-dipropyl-3-phenyl-3-(2-(2-(1-methacroylethoxy)ethoxy)ethoxy)phenyl-3H,13H-indeno[2′,3′: 3,4]naphtho[1,2-b]pyran]	excellent
C=C(C)C(=O)OCCOC(=O)CCC(=O)N1CCN(c2ccc(C3(c4ccccc4)C=Cc4c5c(c6cc(N7CCCCC7)c(OC)cc6c4O3)-c3ccc([Si](C)(C)C)cc3C5(C)C)cc2)CC1 (stereo not shown) [Example 5]	excellent
